Results: ChEMBL document CHEMBL1143543, “Potent 1,3,4-trisubstituted pyrrolidine CCR5 receptor antagonists: effects of fused heterocycles on antiviral activity and pharmacokinetic properties” (Bioorg Med Chem Lett, 2005)
Values belong to the compound of their own block, whether it stands above or below them.

Columns and labels:
[1] = tested on: Human immunodeficiency virus 1; assay: Antiinfective activity in HeLa cells against HIV-1(BAL) in the absence of 50% of human serum; format: functional; settings: Human immunodeficiency virus 1, HeLa
[2] = tested on: Human immunodeficiency virus 1; assay: Antiinfective activity in HeLa cells against HIV-1(BAL) in the presence of 50% of human serum; format: functional; settings: Human immunodeficiency virus 1, HeLa
[3] = biological target: C-C chemokine receptor type 5 (Homo sapiens, UniProt P51681); assay: Displacement of [125I]-MIP-1 alpha from human C-C chemokine receptor type 5 expressed on CHO cell membranes
[4] = Oral bioavailability in rat; format: ADME, organism-based; settings: in vivo
[5] = Bioavailability in rat; format: ADME, organism-based; settings: in vivo
[6] = Half life in rat; format: ADME; settings: in vivo
[7] = Plasma clearance in rat; format: ADME, organism-based; settings: read-out: Clp
[8] = biological target: Voltage-gated L-type calcium channel (Homo sapiens, UniProt Q13936+Q13698+Q01668+O60840); assay: Inhibitory concentration against L-type [Ca2+] channel; format: protein assay
[9] = Inhibitory concentration against PBM cells; format: functional; settings: PBMC
[10] = biological target: Voltage-gated inwardly rectifying potassium channel KCNH2 (Homo sapiens, UniProt Q12809); assay: Inhibitory activity against human Potassium channel HERG
Chain of Voltage-gated inwardly rectifying potassium channel KCNH2 (Q12809 whole entry): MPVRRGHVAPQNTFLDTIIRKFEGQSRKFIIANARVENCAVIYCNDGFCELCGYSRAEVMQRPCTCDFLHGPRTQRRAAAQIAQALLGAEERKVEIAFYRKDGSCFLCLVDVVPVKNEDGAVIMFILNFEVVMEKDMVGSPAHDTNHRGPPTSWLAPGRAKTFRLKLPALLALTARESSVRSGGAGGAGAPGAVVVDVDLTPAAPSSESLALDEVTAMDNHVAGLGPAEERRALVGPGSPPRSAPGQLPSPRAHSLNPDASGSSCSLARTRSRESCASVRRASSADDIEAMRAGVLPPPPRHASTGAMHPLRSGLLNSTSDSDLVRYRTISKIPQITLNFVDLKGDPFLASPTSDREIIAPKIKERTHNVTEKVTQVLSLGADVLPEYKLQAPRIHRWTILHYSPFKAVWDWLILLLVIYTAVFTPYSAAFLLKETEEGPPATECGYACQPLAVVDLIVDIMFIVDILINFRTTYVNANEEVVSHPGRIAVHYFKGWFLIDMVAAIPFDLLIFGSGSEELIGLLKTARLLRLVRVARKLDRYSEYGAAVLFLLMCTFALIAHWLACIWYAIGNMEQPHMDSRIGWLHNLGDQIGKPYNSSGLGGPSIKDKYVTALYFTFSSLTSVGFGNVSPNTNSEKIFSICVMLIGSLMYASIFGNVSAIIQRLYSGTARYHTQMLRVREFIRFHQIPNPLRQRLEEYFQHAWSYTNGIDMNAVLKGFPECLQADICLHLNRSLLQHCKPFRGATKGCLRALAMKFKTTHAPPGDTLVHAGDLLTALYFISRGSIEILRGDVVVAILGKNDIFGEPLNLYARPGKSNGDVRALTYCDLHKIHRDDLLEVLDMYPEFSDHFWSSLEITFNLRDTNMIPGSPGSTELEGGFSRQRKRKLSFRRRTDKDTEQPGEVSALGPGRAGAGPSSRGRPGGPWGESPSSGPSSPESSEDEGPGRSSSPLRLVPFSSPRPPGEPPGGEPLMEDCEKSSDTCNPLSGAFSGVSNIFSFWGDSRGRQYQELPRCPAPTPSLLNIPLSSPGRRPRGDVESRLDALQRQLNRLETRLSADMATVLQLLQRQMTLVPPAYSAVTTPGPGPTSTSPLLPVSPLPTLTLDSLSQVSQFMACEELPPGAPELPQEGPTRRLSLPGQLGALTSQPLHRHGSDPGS

Chain of C-C chemokine receptor type 5 (P51681 whole entry): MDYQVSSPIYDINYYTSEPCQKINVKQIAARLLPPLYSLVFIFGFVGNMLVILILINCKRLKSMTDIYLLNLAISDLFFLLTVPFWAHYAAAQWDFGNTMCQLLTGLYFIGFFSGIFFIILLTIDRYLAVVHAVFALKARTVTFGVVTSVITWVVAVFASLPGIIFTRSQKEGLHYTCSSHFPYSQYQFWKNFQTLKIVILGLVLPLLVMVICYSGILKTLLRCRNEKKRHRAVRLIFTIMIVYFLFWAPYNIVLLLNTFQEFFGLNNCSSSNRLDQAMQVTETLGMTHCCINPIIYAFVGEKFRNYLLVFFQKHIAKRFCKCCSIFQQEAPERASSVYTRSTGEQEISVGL

SMILES: O=C(O)[C@@H](C1CCCCC1)N1C[C@H](CN2CCC(Cn3cnc4ccccc43)CC2)[C@@H](c2ccccc2)C1
IC90 [1]: 100 nM
IC90 [2]: > 300 nM
IC50 [3]: 6.3 nM

SMILES: O=C(O)[C@@H](CC1CCC1)N1C[C@H](CN2CCC(c3nnc4ccccn34)CC2)[C@@H](c2ccccc2)C1
IC90 [1]: 100 nM
IC90 [2]: > 300 nM
IC50 [3]: 12 nM

IC50 [3]: 100 nM
SMILES: O=C(O)[C@@H](C1CCCCC1)N1C[C@H](CN2CCC(n3cnc(=O)c4ccccc43)CC2)[C@@H](c2ccccc2)C1

SMILES: O=C(O)[C@@H](C1CCCCC1)N1C[C@H](CN2CCC(CCCn3cnc4ccccc43)CC2)[C@@H](c2ccccc2)C1
IC90 [1]: 1.2 nM
IC90 [2]: 33 nM
IC50 [3]: 0.84 nM
bioavailability [4]: < 2%

SMILES: O=C(O)[C@@H](CC1CCC1)N1C[C@H](CN2CCC(c3cnc4ccc(-c5ccccc5)cn34)CC2)[C@@H](c2cccc(F)c2)C1
bioavailability [5]: 19%
IC90 [1]: 11 nM
IC90 [2]: 300 nM
IC50 [3]: 0.8 nM
half-life [6]: 96 min
clearance [7]: 83 mL/min/kg

SMILES: O=C(O)[C@@H](C1CCCCC1)N1C[C@H](CN2CCC(CCn3cnc4ccccc43)CC2)[C@@H](c2ccccc2)C1
IC90 [1]: 100 nM
IC90 [2]: > 300 nM
IC50 [3]: 2.6 nM

SMILES: CCc1ccn2c(C3CCN(C[C@H]4CN([C@H](CC5CCC5)C(=O)O)C[C@@H]4c4cccc(F)c4)CC3)cnc2c1
bioavailability [5]: 11%
IC90 [1]: 0.13 nM
IC90 [2]: 11 nM
IC50 [3]: 0.35 nM
half-life [6]: 150 min
clearance [7]: 67 mL/min/kg

SMILES: O=C(O)[C@@H](CC1CCC1)N1C[C@H](CN2CCC(c3cnc4ccc(Cl)cn34)CC2)[C@@H](c2cccc(F)c2)C1
bioavailability [5]: 26%
IC90 [1]: 1.2 nM
IC90 [2]: 100 nM
IC50 [3]: 0.89 nM
half-life [6]: 42 min
clearance [7]: 16 mL/min/kg
IC50 [8]: > 10000 nM

IC50 [3]: 12 nM
SMILES: O=C(O)[C@@H](C1CCCCC1)N1C[C@H](CN2CCC(n3cnc4ccccc4c3=O)CC2)[C@@H](c2ccccc2)C1

SMILES: O=C(O)[C@@H](CC1CCC1)N1C[C@H](CN2CCC(c3cnc4ccc(F)cn34)CC2)[C@@H](c2cccc(F)c2)C1
bioavailability [5]: 38%
IC90 [1]: 3.7 nM
IC90 [2]: 300 nM
IC50 [3]: 0.3 nM
half-life [6]: 48 min
clearance [7]: 19 mL/min/kg

SMILES: O=C(O)[C@@H](C1CCCCC1)N1C[C@H](CN2CCC(n3c(=O)[nH]c4ccccc43)CC2)[C@@H](c2ccccc2)C1
IC50 [3]: 63 nM

SMILES: O=C(O)[C@@H](CC1CCC1)N1C[C@H](CN2CCC(c3cnc4ccc([N+](=O)[O-])cn34)CC2)[C@@H](c2cccc(F)c2)C1
bioavailability [5]: 61%
IC90 [1]: 100 nM
IC90 [2]: 300 nM
IC50 [3]: 0.6 nM
half-life [6]: 12 min
clearance [7]: 120 mL/min/kg

IC50 [3]: 23 nM
SMILES: O=C(O)[C@@H](C1CCCCC1)N1C[C@H](CN2CCC(n3cnc4ncccc43)CC2)[C@@H](c2ccccc2)C1

SMILES: O=C(O)[C@@H](C1CCCCC1)N1C[C@H](CN2CCC(n3nnc4ccccc43)CC2)[C@@H](c2ccccc2)C1
IC90 [1]: 100 nM
IC50 [3]: 8.2 nM

SMILES: O=C(O)[C@@H](CC1CCC1)N1C[C@H](CN2CCC(CCCc3ccccc3)CC2)[C@@H](c2ccccc2)C1
IC95 [9]: < 8 nM

SMILES: Cc1cc(C)n2ncc(C3CCN(C[C@H]4CN([C@H](CC5CCC5)C(=O)O)C[C@@H]4c4cccc(F)c4)CC3)c2n1
IC90 [1]: > 300 nM
IC90 [2]: > 300 nM
IC50 [3]: 7 nM

SMILES: O=C(O)[C@@H](CC1CCC1)N1C[C@H](CN2CCC(c3cnc4ccccn34)CC2)[C@@H](c2cccc(F)c2)C1
bioavailability [5]: 4%
IC90 [1]: 1.2 nM
IC90 [2]: 33 nM
IC50 [3]: 0.42 nM
half-life [6]: 126 min
clearance [7]: 38 mL/min/kg
IC50 [8]: > 10000 nM

SMILES: O=C(O)[C@@H](CC1CCC1)N1C[C@H](CN2CCC(c3cnc4cnccn34)CC2)[C@@H](c2cccc(F)c2)C1
IC90 [1]: 11 nM
IC90 [2]: 100 nM
IC50 [3]: 1 nM

IC50 [3]: 200 nM
SMILES: O=C(O)[C@@H](CC1CCC1)N1C[C@H](CN2CCC(c3cn4cccnc4n3)CC2)[C@@H](c2ccccc2)C1

SMILES: O=C(O)[C@@H](C1CCCCC1)N1C[C@H](CN2CCC(n3cnc4ccccc43)CC2)[C@@H](c2ccccc2)C1
IC90 [1]: 11 nM
IC90 [2]: 100 nM
IC50 [3]: 2.5 nM
bioavailability [4]: < 2%

SMILES: O=C(O)[C@@H](CC1CCC1)N1C[C@H](CN2CCC(c3cnc4c(Cl)cc(Cl)cn34)CC2)[C@@H](c2cccc(F)c2)C1
bioavailability [5]: 39%
IC90 [1]: 33 nM
IC90 [2]: 300 nM
IC50 [3]: 0.5 nM
half-life [6]: 24 min
clearance [7]: 20 mL/min/kg

SMILES: O=C(O)[C@@H](CC1CCC1)N1C[C@H](CN2CCC(c3cnc4ccc(C(F)(F)F)cn34)CC2)[C@@H](c2cccc(F)c2)C1
bioavailability [5]: 26%
IC50 [10]: < 10000 nM
IC90 [1]: 11 nM
IC90 [2]: 300 nM
IC50 [3]: 0.82 nM
half-life [6]: 48 min
clearance [7]: 18 mL/min/kg
IC50 [8]: > 10000 nM

SMILES: O=C(O)[C@@H](C1CCCCC1)N1C[C@H](CN2CCC(n3cnc4cccnc43)CC2)[C@@H](c2ccccc2)C1
IC90 [1]: 33 nM
IC50 [3]: 2.8 nM

SMILES: O=C(O)[C@@H](C1CCCCC1)N1C[C@H](CN2CCC(c3c[nH]c4ccccc34)CC2)[C@@H](c2ccccc2)C1
IC50 [3]: 10 nM

SMILES: O=C(O)[C@@H](CC1CCC1)N1C[C@H](CN2CCC(c3ncc4ccccn34)CC2)[C@@H](c2cccc(F)c2)C1
IC90 [1]: > 300 nM
IC90 [2]: > 300 nM
IC50 [3]: 13 nM

SMILES: O=C(O)[C@@H](CC1CCC1)N1C[C@H](CN2CCC(c3cnc4ncccn34)CC2)[C@@H](c2cccc(F)c2)C1
IC90 [1]: 33 nM
IC90 [2]: 100 nM
IC50 [3]: 3.5 nM

SMILES: O=C(O)[C@@H](CC1CCC1)N1C[C@H](CN2CCC(c3cn4ccncc4n3)CC2)[C@@H](c2cccc(F)c2)C1
IC90 [1]: 300 nM
IC90 [2]: 300 nM
IC50 [3]: 29 nM

SMILES: O=C(O)[C@@H](CC1CCC1)N1C[C@H](CN2CCC(c3cnc4cccnn34)CC2)[C@@H](c2cccc(F)c2)C1
IC90 [1]: 11 nM
IC90 [2]: 300 nM
IC50 [3]: 3 nM

IC50 [3]: 65 nM
SMILES: O=C(O)[C@@H](CC1CCC1)N1C[C@H](CN2CCC(c3cn4ccccc4n3)CC2)[C@@H](c2cccc(F)c2)C1
